Assay results as given in the NIST ThermoML archive (doi:10.1016/j.jct.2013.10.023).

Experiment: xn = mol fraction of the nth substance listed
Details: 101 kPa, Liquid; for viscosity: Capillary tube (Ostwald / Ubbelohde) method; for mass density: Vibrating tube method

CC(=O)[O-].CCn1cc[n+](C)c1 [1-ethyl-3-methylimidazolium acetate] + CCOS(=O)(=O)[O-].CCn1cc[n+](C)c1
Details | mass density [kg/m3] | viscosity [mPa·s]
298.15 K, x1 = 0.0993 | 1226.62 | 97.2
298.15 K, x1 = 0.2011 | 1214.23 | 99.93
298.15 K, x1 = 0.2973 | 1202.11 | 101.8
298.15 K, x1 = 0.3917 | 1189.85 | 105.2
298.15 K, x1 = 0.5069 | 1174.26 | 110.1
298.15 K, x1 = 0.5988 | 1161.36 | 114.1
298.15 K, x1 = 0.705 | 1145.81 | 120.1
298.15 K, x1 = 0.8012 | 1131.13 | 125.8
298.15 K, x1 = 0.9007 | 1115.5 | 131
298.15 K, x1 = 1 | 1099.04 | 138.4
308.15 K, x1 = 0.0993 | 1219.9 | 61.11
308.15 K, x1 = 0.2011 | 1207.5 | 61.27
308.15 K, x1 = 0.2973 | 1195.48 | 62.35
308.15 K, x1 = 0.3917 | 1183.26 | 63.63
308.15 K, x1 = 0.5069 | 1167.73 | 65.47
308.15 K, x1 = 0.5988 | 1154.86 | 66.99
308.15 K, x1 = 0.705 | 1139.5 | 69.07
308.15 K, x1 = 0.8012 | 1124.87 | 71.01
308.15 K, x1 = 0.9007 | 1109.3 | 73.4
308.15 K, x1 = 1 | 1092.95 | 76.1
318.15 K, x1 = 0.0993 | 1213.21 | 40.47
318.15 K, x1 = 0.2011 | 1200.9 | 41.05
318.15 K, x1 = 0.2973 | 1188.92 | 41.59
318.15 K, x1 = 0.3917 | 1176.76 | 42.12
318.15 K, x1 = 0.5069 | 1161.31 | 41.77
318.15 K, x1 = 0.5988 | 1148.5 | 43.3
318.15 K, x1 = 0.705 | 1133.15 | 43.93
318.15 K, x1 = 0.8012 | 1118.65 | 44.55
318.15 K, x1 = 0.9007 | 1103.14 | 45.24
318.15 K, x1 = 1 | 1086.88 | 45.9
328.15 K, x1 = 0.0993 | 1206.59 | 29.06
328.15 K, x1 = 0.2011 | 1194.33 | 29.19
328.15 K, x1 = 0.2973 | 1182.38 | 29.32
328.15 K, x1 = 0.3917 | 1170.26 | 29.44
328.15 K, x1 = 0.5069 | 1154.88 | 29.58
328.15 K, x1 = 0.5988 | 1142.13 | 29.69
328.15 K, x1 = 0.705 | 1126.87 | 29.81
328.15 K, x1 = 0.8012 | 1112.55 | 29.91
328.15 K, x1 = 0.9007 | 1097.01 | 30
328.15 K, x1 = 1 | 1080.86 | 30.1
338.15 K, x1 = 0.0993 | 1200.01 | 20.7
338.15 K, x1 = 0.2011 | 1187.79 | 20.78
338.15 K, x1 = 0.2973 | 1175.91 | 20.84
338.15 K, x1 = 0.3917 | 1163.85 | 20.89
338.15 K, x1 = 0.5069 | 1148.54 | 20.92
338.15 K, x1 = 0.5988 | 1135.86 | 20.92
338.15 K, x1 = 0.705 | 1120.68 | 20.89
338.15 K, x1 = 0.8012 | 1106.35 | 20.86
338.15 K, x1 = 0.9007 | 1090.93 | 20.84
338.15 K, x1 = 1 | 1074.86 | 20.8
348.15 K, x1 = 0.0993 | 1196.34 | 15.63
348.15 K, x1 = 0.2011 | 1184.12 | 15.58
348.15 K, x1 = 0.2973 | 1172.27 | 15.5
348.15 K, x1 = 0.3917 | 1160.23 | 15.39
348.15 K, x1 = 0.5069 | 1144.94 | 15.24
348.15 K, x1 = 0.5988 | 1132.29 | 15.1
348.15 K, x1 = 0.705 | 1117.12 | 14.91
348.15 K, x1 = 0.8012 | 1102.78 | 14.72
348.15 K, x1 = 0.9007 | 1087.39 | 14.51
348.15 K, x1 = 1 | 1071.37 | 14.28
358.15 K, x1 = 0.0993 | 1187 | 12.57
358.15 K, x1 = 0.2011 | 1174.89 | 12.8
358.15 K, x1 = 0.2973 | 1163.13 | 12.95
358.15 K, x1 = 0.3917 | 1151.18 | 12.93
358.15 K, x1 = 0.5069 | 1136.03 | 12.9
358.15 K, x1 = 0.5988 | 1123.47 | 12.81
358.15 K, x1 = 0.705 | 1108.41 | 12.7
358.15 K, x1 = 0.8012 | 1094.15 | 12.47
358.15 K, x1 = 0.9007 | 1078.94 | 12.17
358.15 K, x1 = 1 | 1063.03 | 11.53
